Results: US6737383B1, “Herbicidal oxadiazolidines” (priority 1999, dated 2004)

What was measured:
duck salad = test: Test B flood test duck salad; format: in vivo, Heteranthera limosa
Method in brief: (§1)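 Read-out is a visual response score from 0 (no effect) to 10 (complete control), assigned by comparison with untreated controls. Treatment was applied at the 2-leaf stage, and plants stayed in the greenhouse for twelve to sixteen days before scoring.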

velvetleaf = test: Test B pre/postemergence velvetleaf; format: in vivo, Abutilon theophrasti
Method in brief: (§2)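 Response is a visual 0-to-10 score relative to untreated plants, where 0 means no effect and 10 means complete control, taken twelve to sixteen days after application. Treatments went onto soil at planting and onto foliage of 1- to 4-leaf plants, using a surfactant-containing non-phytotoxic solvent.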

rape = test: Test B pre/postemergence rape; format: in vivo, Brassica napus
Method in brief: as §2

pigweed = test: Test B pre/postemergence pigweed; format: in vivo, Amaranthus retroflexus
Method in brief: as §2

morningglory = test: Test B pre/postemergence morningglory; format: in vivo, Ipomoea hederacea
Method in brief: as §2

crabgrass = test: Test B pre/postemergence crabgrass; format: in vivo, Digitaria sanguinalis
Method in brief: as §2

rice = test: Test B flood test rice; format: in vivo, Oryza sativa
Method in brief: as §1

wild oat = test: Test B pre/postemergence wild oat; format: in vivo, Avena fatua
Method in brief: as §2

sugar beet = test: Test B pre/postemergence sugar beet; format: in vivo, Beta vulgaris
Method in brief: as §2

wheat = test: Test B pre/postemergence wheat; format: in vivo, Triticum aestivum
Method in brief: as §2

bamyardgrass = test: Test B flood test barnyardgrass; format: in vivo, Echinochloa crus-galli
Method in brief: as §1

purple nutsedge = test: Test B pre/postemergence purple nutsedge; format: in vivo, Cyperus rotundus
Method in brief: as §2

soybean = test: Test B pre/postemergence soybean; format: in vivo, Glycine max
Method in brief: as §2

cocklebur = test: Test B pre/postemergence cocklebur; format: in vivo, Xanthium strumarium
Method in brief: as §2

corn = test: Test B pre/postemergence corn; format: in vivo, Zea mays
Method in brief: as §2

giant foxtail = test: Test B pre/postemergence giant foxtail; format: in vivo, Setaria faberii
Method in brief: as §2

[1] = Rate 62 g/ha, flood test species, Pre-emergence, visual evaluation after twelve to sixteen days
[2] = Rate 125 g/ha, under heading Pre-emergence, flood test species, visual evaluation after twelve to sixteen days
[3] = Rate 250 g/ha, Pre-emergence (flood test species), scale 0 to 10, 0 is no effect, 10 is complete control
[4] = Rate 500 g/ha, Pre-emergence section of Table B, 0 to 10 scale (0 no effect, 10 complete control)
[5] = Postemergence, Rate 62 g/ha, scale 0 to 10, 0 is no effect, 10 is complete control
[6] = Postemergence, Rate 125 g/ha, scale of 0 to 10 where 0 is no effect and 10 is complete control
[7] = Preemergence, Rate 62 g/ha, scale of 0 to 10 where 0 is no effect and 10 is complete control
[8] = Preemergence, Rate 125 g/ha, scale of 0 to 10 where 0 is no effect and 10 is complete control
[9] = Preemergence, Rate 250 g/ha, scale 0 to 10 (0 no effect, 10 complete control)
[10] = Preemergence, Rate 500 g/ha, scale of 0 to 10 where 0 is no effect and 10 is complete control
[11] = Rate 500 g/ha, Postemergence, scale 0 to 10, 0 is no effect, 10 is complete control
[12] = Postemergence, Rate 250 g/ha, scale of 0 to 10, 0 is no effect, 10 is complete control

CC[C@@H](C)n1c(=O)on(C(=O)N(c2ccc(F)cc2F)C(C)C)c1=O [Compound 667]
5: Plant response rating, Velvetleaf (velvetleaf; [5]) | Redroot pigweed plant response rating (pigweed; [6]) | Sugarbeets plant response rating (sugar beet; [7]) | Plant response rating, Wheat (wheat; [9]) | Wheat plant response rating (wheat; [11]) | Cocklebur plant response rating (cocklebur; [11]) | Corn plant response rating (corn; [11]) | Plant response rating, Giant foxtail (giant foxtail; [5])
3: Plant response rating, Morningglory (morningglory; [9]) | Sugarbeets plant response rating (sugar beet; [11]) | Plant response rating, Nutsedge (purple nutsedge; [9]) | Soybean plant response rating (soybean; [6]) | Soybean plant response rating (soybean; [8]) | Cocklebur plant response rating (cocklebur; [6])
2: Plant response rating, Redroot pigweed (pigweed; [5]) | Plant response rating, Morningglory (morningglory; [5]) | Morningglory plant response rating (morningglory; [6]) | Wheat plant response rating (wheat; [7]) | Wheat plant response rating (wheat; [8]) | Plant response rating, Soybean (soybean; [5]) | Plant response rating, Cocklebur (cocklebur; [5])
0: Plant response rating, Ducksalad (0 to 10 scale, 0 is no effect, 10 is complete control) (duck salad; [1]) | Ducksalad plant response rating (0 to 10 scale, 0 is no effect, 10 is complete control) (duck salad; [2]) | Ducksalad plant response rating (duck salad; [3]) | Ducksalad plant response rating (duck salad; [4]) | Plant response rating, Rape (rape; [5]) | Morningglory plant response rating (morningglory; [7]) | Plant response rating, Rice (0 to 10 scale, 0 is no effect, 10 is complete control) (rice; [1]) | Rice plant response rating (0 to 10 scale, 0 is no effect, 10 is complete control) (rice; [2]) | Rice plant response rating (rice; [3]) | Rice plant response rating (rice; [4]) | Plant response rating, Wild oats (wild oat; [5]) | Plant response rating, Sugarbeets (sugar beet; [5]) | Sugarbeets plant response rating (sugar beet; [6]) | Plant response rating, Wheat (wheat; [5]) | Wheat plant response rating (wheat; [6]) | Plant response rating, Barnyardgrass (0 to 10 scale, 0 is no effect, 10 is complete control) (bamyardgrass; [1]) | Barnyardgrass plant response rating (0 to 10 scale, 0 is no effect, 10 is complete control) (bamyardgrass; [2]) | Barnyardgrass plant response rating (bamyardgrass; [3]) | Barnyardgrass plant response rating (bamyardgrass; [4]) | Plant response rating, Nutsedge (purple nutsedge; [5]) | Nutsedge plant response rating (purple nutsedge; [6]) | Nutsedge plant response rating (purple nutsedge; [7]) | Nutsedge plant response rating (purple nutsedge; [8]) | Nutsedge plant response rating (purple nutsedge; [11]) | Soybean plant response rating (soybean; [7]) | Cocklebur plant response rating (cocklebur; [7]) | Cocklebur plant response rating (cocklebur; [8]) | Plant response rating, Cocklebur (cocklebur; [9]) | Plant response rating, Cocklebur (cocklebur; [10]) | Corn plant response rating (corn; [7])
1: Morningglory plant response rating (morningglory; [8])
10: Plant response rating, Velvetleaf (velvetleaf; [10]) | Plant response rating, Rape (rape; [9]) | Plant response rating, Rape (rape; [10]) | Redroot pigweed plant response rating (pigweed; [7]) | Redroot pigweed plant response rating (pigweed; [8]) | Plant response rating, Redroot pigweed (pigweed; [9]) | Plant response rating, Redroot pigweed (pigweed; [10]) | Plant response rating, Crabgrass (crabgrass; [9]) | Plant response rating, Crabgrass (crabgrass; [10]) | Crabgrass plant response rating (crabgrass; [11]) | Plant response rating, Wild oats (wild oat; [10]) | Plant response rating, Sugarbeets (sugar beet; [10]) | Plant response rating, Corn (corn; [10]) | Giant foxtail plant response rating (giant foxtail; [7]) | Giant foxtail plant response rating (giant foxtail; [8]) | Plant response rating, Giant foxtail (giant foxtail; [9]) | Plant response rating, Giant foxtail (giant foxtail; [10])
7: Rape plant response rating (rape; [7]) | Redroot pigweed plant response rating (pigweed; [11]) | Sugarbeets plant response rating (sugar beet; [8]) | Plant response rating, Nutsedge (purple nutsedge; [10]) | Plant response rating, Soybean (soybean; [10]) | Plant response rating, Corn (corn; [9])
4: Rape plant response rating (rape; [6]) | Morningglory plant response rating (morningglory; [12]) | Wild oats plant response rating (wild oat; [6]) | Wild oats plant response rating (wild oat; [7]) | Cocklebur plant response rating (cocklebur; [12]) | Plant response rating, Corn (corn; [5]) | Corn plant response rating (corn; [6]) | Corn plant response rating (corn; [12]) | Corn plant response rating (corn; [8])
9: Crabgrass plant response rating (crabgrass; [12]) | Giant foxtail plant response rating (giant foxtail; [6]) | Giant foxtail plant response rating (giant foxtail; [12]) | Giant foxtail plant response rating (giant foxtail; [11])
6: Velvetleaf plant response rating (velvetleaf; [6]) | Velvetleaf plant response rating (velvetleaf; [7]) | Velvetleaf plant response rating (velvetleaf; [8]) | Rape plant response rating (rape; [11]) | Plant response rating, Morningglory (morningglory; [10]) | Morningglory plant response rating (morningglory; [11]) | Plant response rating, Crabgrass (crabgrass; [5]) | Wild oats plant response rating (wild oat; [11]) | Plant response rating, Wheat (wheat; [10]) | Plant response rating, Soybean (soybean; [9])
8: Plant response rating, Velvetleaf (velvetleaf; [9]) | Velvetleaf plant response rating (velvetleaf; [11]) | Rape plant response rating (rape; [8]) | Crabgrass plant response rating (crabgrass; [6]) | Crabgrass plant response rating (crabgrass; [7]) | Crabgrass plant response rating (crabgrass; [8]) | Wild oats plant response rating (wild oat; [8]) | Plant response rating, Wild oats (wild oat; [9]) | Plant response rating, Sugarbeets (sugar beet; [9])
